{"source": "ChEMBL document CHEMBL1122257", "about": "“Synthesis and anticonvulsant activity of some tetracyclic indole derivatives” (1983)", "format_in_all_cases": "functional", "key": {"Rattus norvegicus [1]": {"tested_on": "Rattus norvegicus", "test": "Tested for anticonvulsant activity in 3 rats after oral administration of 30 mg/kg po dose for protection against maximal electroshock in rat MES test; 2/3"}, "Rattus norvegicus [2]": {"tested_on": "Rattus norvegicus", "test": "Tested anticonvulsant activity in 6 rats after oral administration of 30 mg/kg po dose for rotarod performance; 0/6"}, "Rattus norvegicus [3]": {"tested_on": "Rattus norvegicus", "test": "Tested for anticonvulsant activity in 3 rats after oral administration of 30 mg/kg po dose for protection against maximal electroshock in rat MES test; 0/3"}, "Rattus norvegicus [4]": {"tested_on": "Rattus norvegicus", "test": "Tested for anticonvulsant activity in 3 rats after oral administration of 30 mg/kg po dose for protection against maximal electroshock in rat MES test; 3/3"}, "Rattus norvegicus [5]": {"tested_on": "Rattus norvegicus", "test": "Tested anticonvulsant activity in 6 rats after oral administration of 300 mg/kg po dose for rotarod performance; 0/6"}, "Rattus norvegicus [6]": {"tested_on": "Rattus norvegicus", "test": "Anticonvulsant activity in rats after oral administration of 30 mg/kg dose(effective dosage)"}, "Rattus norvegicus [7]": {"tested_on": "Rattus norvegicus", "test": "Tested anticonvulsant activity in 6 rats after oral administration of 30 mg/kg po dose for rotarod performance; 1/6"}, "Rattus norvegicus [8]": {"tested_on": "Rattus norvegicus", "test": "Tested for anticonvulsant activity in 3 rats after oral administration of 30 mg/kg po dose for protection against maximal electroshock in rat MES test; 1/3"}, "Rattus norvegicus [9]": {"tested_on": "Rattus norvegicus", "test": "Anticonvulsant activity in rats after oral administration of 30 mg/kg dose for rotarod performance; 0/6"}}}
{"smiles": "CN(C)CCC1CCc2cccc3c4c(n1c23)CCCC4", "note": "(stereo unspecified)", "values": [{"measurement": "Reactors/Test group", "setting": "Rattus norvegicus [1]", "result": 2}, {"measurement": "Reactors/Test group", "setting": "Rattus norvegicus [2]", "result": 0}]}
{"smiles": "CN(C)CC1Cn2c3c(c4cccc1c42)CCCCC3", "note": "(stereo unspecified)", "values": [{"measurement": "Reactors/Test group", "setting": "Rattus norvegicus [3]", "result": 0}, {"measurement": "Reactors/Test group", "setting": "Rattus norvegicus [2]", "result": 0}]}
{"smiles": "CN(C)CC1CCc2cccc3c4c(n1c23)CCCC4", "note": "(stereo unspecified)", "values": [{"measurement": "Reactors/Test group", "setting": "Rattus norvegicus [4]", "result": 3}, {"measurement": "Reactors/Test group", "setting": "Rattus norvegicus [5]", "result": 0}]}
{"smiles": "CN(C)CCC1CCc2cccc3c4c(n1c23)CCN(C)C4", "note": "(stereo unspecified)", "values": [{"measurement": "Reactors/Test group", "setting": "Rattus norvegicus [3]", "result": 0}, {"measurement": "Reactors/Test group", "setting": "Rattus norvegicus [2]", "result": 0}]}
{"smiles": "CNCC1CCc2cccc3c4c(n1c23)CCCCC4", "note": "(stereo unspecified)", "values": [{"measurement": "Reactors/Test group", "setting": "Rattus norvegicus [3]", "result": 0}, {"measurement": "Reactors/Test group", "setting": "Rattus norvegicus [2]", "result": 0}]}
{"smiles": "CNC(=O)C1CCc2cccc3c4c(n1c23)CCCCC4", "note": "(stereo unspecified)", "values": [{"measurement": "Reactors/Test group", "setting": "Rattus norvegicus [4]", "result": 3}, {"measurement": "Reactors/Test group", "setting": "Rattus norvegicus [2]", "result": 0}, {"measurement": "ED50", "setting": "Rattus norvegicus [6]", "result": 12.9, "unit": "mg/kg"}]}
{"smiles": "CN(C)CCC1CCc2cccc3c4c(n1c23)CCCCCC4", "note": "(stereo unspecified)", "values": [{"measurement": "Reactors/Test group", "setting": "Rattus norvegicus [3]", "result": 0}, {"measurement": "Reactors/Test group", "setting": "Rattus norvegicus [2]", "result": 0}]}
{"smiles": "CN(C)CC1Cc2cccc3c4c(n1c23)CCCC4", "note": "(stereo unspecified)", "values": [{"measurement": "Reactors/Test group", "setting": "Rattus norvegicus [4]", "result": 3}, {"measurement": "Reactors/Test group", "setting": "Rattus norvegicus [2]", "result": 0}, {"measurement": "ED50", "setting": "Rattus norvegicus [6]", "result": 19.2, "unit": "mg/kg"}]}
{"smiles": "CN(C)CC1CCc2cccc3c4c(n1c23)CCSC4", "note": "(stereo unspecified)", "values": [{"measurement": "Reactors/Test group", "setting": "Rattus norvegicus [3]", "result": 0}, {"measurement": "Reactors/Test group", "setting": "Rattus norvegicus [2]", "result": 0}]}
{"smiles": "CNC(=O)C1CCc2cccc3c4c(n1c23)CCC4", "note": "(stereo unspecified)", "values": [{"measurement": "Reactors/Test group", "setting": "Rattus norvegicus [3]", "result": 0}, {"measurement": "Reactors/Test group", "setting": "Rattus norvegicus [2]", "result": 0}]}
{"smiles": "CN(C)CCC1CCc2cccc3c4c(n1c23)CCC4", "note": "(stereo unspecified)", "values": [{"measurement": "Reactors/Test group", "setting": "Rattus norvegicus [3]", "result": 0}, {"measurement": "Reactors/Test group", "setting": "Rattus norvegicus [2]", "result": 0}]}
{"smiles": "CN(C)C(=O)C1CCc2cccc3c4c(n1c23)CCCCC4", "note": "(stereo unspecified)", "values": [{"measurement": "Reactors/Test group", "setting": "Rattus norvegicus [3]", "result": 0}, {"measurement": "Reactors/Test group", "setting": "Rattus norvegicus [2]", "result": 0}]}
{"smiles": "CN(C)CC1Cc2cccc3c4c(n(c23)C1)CCCCCC4", "note": "(stereo unspecified)", "values": [{"measurement": "Reactors/Test group", "setting": "Rattus norvegicus [3]", "result": 0}, {"measurement": "Reactors/Test group", "setting": "Rattus norvegicus [7]", "result": 1}]}
{"smiles": "CN(C)CC1CCc2cccc3c4c(n1c23)CCCCCC4", "note": "(stereo unspecified)", "values": [{"measurement": "Reactors/Test group", "setting": "Rattus norvegicus [3]", "result": 0}, {"measurement": "Reactors/Test group", "setting": "Rattus norvegicus [2]", "result": 0}]}
{"smiles": "CN1CCN(C(=O)C2CCc3cccc4c5c(n2c34)CCCCC5)CC1", "note": "(stereo unspecified)", "values": [{"measurement": "Reactors/Test group", "setting": "Rattus norvegicus [3]", "result": 0}, {"measurement": "Reactors/Test group", "setting": "Rattus norvegicus [2]", "result": 0}]}
{"smiles": "CN(C)CC1Cn2c3c(c4cccc1c42)CCCCCC3", "note": "(stereo unspecified)", "values": [{"measurement": "Reactors/Test group", "setting": "Rattus norvegicus [3]", "result": 0}, {"measurement": "Reactors/Test group", "setting": "Rattus norvegicus [2]", "result": 0}]}
{"smiles": "CN(C)CC1CCc2cccc3c4c(n1c23)CCCCC4", "note": "(stereo unspecified)", "values": [{"measurement": "Reactors/Test group", "setting": "Rattus norvegicus [1]", "result": 2}, {"measurement": "Reactors/Test group", "setting": "Rattus norvegicus [2]", "result": 0}, {"measurement": "ED50", "setting": "Rattus norvegicus [6]", "result": 78.9, "unit": "mg/kg"}]}
{"smiles": "CN(C)CC1CCc2cccc3c4c(n1c23)-c1ccccc1CC4", "note": "(stereo unspecified)", "values": [{"measurement": "Reactors/Test group", "setting": "Rattus norvegicus [8]", "result": 1}, {"measurement": "Reactors/Test group", "setting": "Rattus norvegicus [7]", "result": 1}]}
{"smiles": "CN(C)CC1CCc2cccc3c4c(n1c23)CCC4", "note": "(stereo unspecified)", "values": [{"measurement": "Reactors/Test group", "setting": "Rattus norvegicus [4]", "result": 3}, {"measurement": "Reactors/Test group", "setting": "Rattus norvegicus [2]", "result": 0}, {"measurement": "ED50", "setting": "Rattus norvegicus [6]", "result": 12.5, "unit": "mg/kg"}]}
{"smiles": "CN(C)CC1Cc2cccc3c4c(n(c23)C1)Cc1ccccc1-4", "note": "(stereo unspecified)", "values": [{"measurement": "Reactors/Test group", "setting": "Rattus norvegicus [3]", "result": 0}, {"measurement": "Reactors/Test group", "setting": "Rattus norvegicus [7]", "result": 1}]}
{"smiles": "CN(C)CC1Cc2cccc3c4c(n1c23)CCCCCC4", "note": "(stereo unspecified)", "values": [{"measurement": "Reactors/Test group", "setting": "Rattus norvegicus [3]", "result": 0}, {"measurement": "Reactors/Test group", "setting": "Rattus norvegicus [2]", "result": 0}]}
{"smiles": "CN(C)CC1CCc2cccc3c4c(n1c23)-c1ccccc1SC4", "note": "(stereo unspecified)", "values": [{"measurement": "Reactors/Test group", "setting": "Rattus norvegicus [3]", "result": 0}, {"measurement": "Reactors/Test group", "setting": "Rattus norvegicus [2]", "result": 0}]}
{"smiles": "CN(C)CC1Cc2cccc3c4c(n1c23)CCCCC4", "note": "(stereo unspecified)", "values": [{"measurement": "Reactors/Test group", "setting": "Rattus norvegicus [3]", "result": 0}, {"measurement": "Reactors/Test group", "setting": "Rattus norvegicus [2]", "result": 0}]}
{"smiles": "CNC(=O)C1CCc2cccc3c4c(n1c23)CCCC4", "note": "(stereo unspecified)", "values": [{"measurement": "Reactors/Test group", "setting": "Rattus norvegicus [3]", "result": 0}, {"measurement": "Reactors/Test group", "setting": "Rattus norvegicus [2]", "result": 0}]}
{"smiles": "CN(C)CCC1CCc2cccc3c4c(n1c23)CCCCC4", "note": "(stereo unspecified)", "values": [{"measurement": "Reactors/Test group", "setting": "Rattus norvegicus [4]", "result": 3}, {"measurement": "Reactors/Test group", "setting": "Rattus norvegicus [2]", "result": 0}, {"measurement": "ED50", "setting": "Rattus norvegicus [6]", "result": 27.4, "unit": "mg/kg"}]}
{"smiles": "CN(C)CCC1CCc2cccc3c4c(n1c23)CCSC4", "note": "(stereo unspecified)", "values": [{"measurement": "Reactors/Test group", "setting": "Rattus norvegicus [3]", "result": 0}, {"measurement": "Reactors/Test group", "setting": "Rattus norvegicus [7]", "result": 1}]}
{"smiles": "O=C1NC(=O)C(c2ccccc2)(c2ccccc2)N1", "note": "[PHENYTOIN]", "values": [{"measurement": "ED50", "setting": "Rattus norvegicus [6]", "result": 42.3, "unit": "mg/kg"}, {"measurement": "Reactors/Test group", "setting": "Rattus norvegicus [9]", "result": 0}]}
{"smiles": "CN(C)CC1Cc2cccc3c4c(n(c23)C1)CCCCC4", "note": "(stereo unspecified)", "values": [{"measurement": "Reactors/Test group", "setting": "Rattus norvegicus [3]", "result": 0}, {"measurement": "Reactors/Test group", "setting": "Rattus norvegicus [2]", "result": 0}]}
